Results reported in ChEMBL document CHEMBL1201862, “PubChem BioAssay data set” (2004).
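Each compound was tested at five concentrations against cells in 96-well plates for 48 hours. Abbreviation: GI50, concentration required for 50% inhibition of growth.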 Active and inactive are the calls of the source. Cut-off read from the data, not from the text of the source: active = GI50 up to about 1.1 µM and inactive = higher.

Tests used:
Assay in all cases: NCI anticancer screen, dose series, 48 h
[1] = system: Malme-3M
[2] = system: SR
[3] = system: HL-60
[4] = system: 786-0
[5] = system: SF-295
[6] = system: ACHN
[7] = system: COLO 205
[8] = system: UO-31
[9] = system: EKVX
[10] = system: SK-MEL-28
[11] = system: TK-10
[12] = system: NCI-H460
[13] = system: CAKI-1
[14] = system: IGROV-1
[15] = system: HCT-15
[16] = system: A549
[17] = system: HT-29
[18] = system: DU-145
[19] = system: SK-MEL-5

Row | SMILES | GI50 [1] | GI50 [2] | GI50 [3] | GI50 [4] | GI50 [5] | GI50 [6] | GI50 [7] | GI50 [8] | GI50 [9] | GI50 [10] | GI50 [11] | GI50 [12] | GI50 [13] | GI50 [14] | GI50 [15] [µM] | GI50 [16] | GI50 [17] | GI50 [18] | GI50 [19]
1 | C=C1C[C@]23CC[C@@H]4C(CO)(CO)CC(=O)C[C@]4(C)[C@@H]2CC[C@H]1C3 | > 100 µM (inactive) | > 100 µM (inactive) | > 100 µM (inactive) | > 100 µM (inactive) | > 100 µM (inactive) | > 100 µM (inactive) | > 100 µM (inactive) | 78.5 µM (inactive) | > 100 µM (inactive) | > 100 µM (inactive) | > 100 µM (inactive) | > 100 µM (inactive) | > 100 µM (inactive) | 57.9 µM (inactive) | > 100 | > 100 µM (inactive) | > 100 µM (inactive) | > 100 µM (inactive) | 
2 | C/C=C/c1c(O)c(=O)c2c(OC)cc(OC)c3c4c(OC)cc(OC)c5c(=O)c(O)c(/C=C/C)c(c1c23)c54 | 6.25 µM (inactive) | > 100 µM (inactive) |  | 14.9 µM (inactive) | 44.5 µM (inactive) | 2.86 µM (inactive) | 3.7 µM (inactive) | 1.64 µM (inactive) | 16.6 µM (inactive) | 16.6 µM (inactive) | > 10 µM (inactive) | 9.48 µM (inactive) | 6.14 µM (inactive) | 5.96 µM (inactive) | 6.49 | 5.97 µM (inactive) | 6.22 µM (inactive) | 8.07 µM (inactive) | 5.73 µM (inactive)
3 | CC(=O)OCC1OC(n2c(-c3ccccc3)c(/N=N/c3ccc(C)cc3)c(C)c(C#N)c2=S)C(OC(C)=O)C(OC(C)=O)C1OC(C)=O (centres undefined) | > 10 µM (inactive) | 8.99 µM (inactive) | 2.82 µM (inactive) | 3.55 µM (inactive) | 23.6 µM (inactive) | > 100 µM (inactive) | 23.1 µM (inactive) | > 10 µM (inactive) |  | 26.4 µM (inactive) | 23.6 µM (inactive) | 10.8 µM (inactive) | 22.9 µM (inactive) |  | 21.1 | 9.62 µM (inactive) | 12.8 µM (inactive) | 18.1 µM (inactive) | 
4 | CCOc1cc(C2CC(c3ccc(NS(=O)(=O)c4cc([N+](=O)[O-])ccc4C)cc3)=NN2)ccc1O (centres undefined) | 25 µM (inactive) | 22.4 µM (inactive) | 15.5 µM (inactive) | 20.1 µM (inactive) |  | 23.7 µM (inactive) | 22.3 µM (inactive) | 27.8 µM (inactive) | 21.4 µM (inactive) | 32.4 µM (inactive) |  |  | 29.3 µM (inactive) | 58.9 µM (inactive) | 20.5 | 29 µM (inactive) | 26.8 µM (inactive) | 36.6 µM (inactive) | 19.2 µM (inactive)
5 | Cc1cc(S(=O)(=O)Nc2nc3cccnc3[nH]2)c(S)cc1Cl | > 100 µM (inactive) | > 100 µM (inactive) | > 100 µM (inactive) | > 100 µM (inactive) | 58.1 µM (inactive) | > 100 µM (inactive) | > 100 µM (inactive) |  | > 100 µM (inactive) | > 100 µM (inactive) | > 100 µM (inactive) | 73.5 µM (inactive) | > 100 µM (inactive) | > 100 µM (inactive) | 91 | 75 µM (inactive) | > 100 µM (inactive) | > 100 µM (inactive) | 71.9 µM (inactive)
6 | C=CCOc1ccc(N)c([N+](=O)[O-])c1 | > 100 µM (inactive) | > 100 µM (inactive) | > 100 µM (inactive) | > 100 µM (inactive) | > 100 µM (inactive) | > 100 µM (inactive) | > 100 µM (inactive) | 94.4 µM (inactive) | > 100 µM (inactive) | > 100 µM (inactive) | > 100 µM (inactive) |  | > 100 µM (inactive) | > 100 µM (inactive) | > 100 | > 100 µM (inactive) | > 100 µM (inactive) | > 100 µM (inactive) | > 100 µM (inactive)
7 | Nc1ccn(C2CC(O)C(COP(=O)(S)OC3CC(n4ccc(N)nc4=O)OC3CO)O2)c(=O)n1 (centres undefined) |  | > 100 µM (inactive) | > 100 µM (inactive) | > 100 µM (inactive) | > 100 µM (inactive) | > 100 µM (inactive) | 13.8 µM (inactive) | > 100 µM (inactive) | > 100 µM (inactive) | > 100 µM (inactive) | > 100 µM (inactive) | > 100 µM (inactive) | > 100 µM (inactive) | > 100 µM (inactive) | > 100 | > 100 µM (inactive) | > 100 µM (inactive) | > 100 µM (inactive) | > 100 µM (inactive)
8 | Cc1ccc(S(=O)(=O)N/N=C2\C(=O)Nc3cc(O)c(C(=O)O)cc32)cc1 | > 100 µM (inactive) | > 100 µM (inactive) |  | > 100 µM (inactive) | > 100 µM (inactive) | > 100 µM (inactive) | > 100 µM (inactive) | > 100 µM (inactive) | 61.8 µM (inactive) | > 100 µM (inactive) | > 100 µM (inactive) | > 100 µM (inactive) | > 100 µM (inactive) | > 100 µM (inactive) | > 100 | > 100 µM (inactive) | > 100 µM (inactive) | > 100 µM (inactive) | > 100 µM (inactive)
9 | COc1cc(C2c3cc4c(cc3OC(Nc3ccccc3)C2C)OCO4)cc(OC)c1OC (centres undefined) | 0.166 µM (active) | 0.828 µM (active) | 0.275 µM (active) | 0.774 µM (active) | 0.333 µM (active) | 1.39 µM (inactive) | 0.415 µM (active) | 2.09 µM (inactive) | 1.31 µM (inactive) | 1.61 µM (inactive) | 23.6 µM (inactive) | 0.524 µM (active) | 0.555 µM (active) | 1.41 µM (inactive) | 0.494 | 1.11 µM (active) | 0.396 µM (active) | 0.923 µM (active) | 
10 | CC(NNC(=O)c1ccncc1)c1ccccc1 (centres undefined) | > 100 µM (inactive) | > 100 µM (inactive) | > 100 µM (inactive) | > 100 µM (inactive) | > 100 µM (inactive) | > 100 µM (inactive) | > 100 µM (inactive) | > 100 µM (inactive) | > 100 µM (inactive) | > 100 µM (inactive) | > 100 µM (inactive) |  | > 100 µM (inactive) | > 100 µM (inactive) | > 100 | > 100 µM (inactive) | > 100 µM (inactive) | > 100 µM (inactive) | > 100 µM (inactive)
11 | O=C(O)CSc1nc2ccccc2[nH]1 | > 100 µM (inactive) | > 100 µM (inactive) |  | > 100 µM (inactive) | > 100 µM (inactive) | > 100 µM (inactive) |  | > 100 µM (inactive) | > 100 µM (inactive) | > 100 µM (inactive) | > 100 µM (inactive) | > 100 µM (inactive) | > 100 µM (inactive) | > 100 µM (inactive) | > 100 | > 100 µM (inactive) | > 100 µM (inactive) | > 100 µM (inactive) | 
12 | CCOC(=O)Cc1[nH]c(C(=O)c2ccccc2)cc1C(=O)c1ccccc1 | 33.6 µM (inactive) | 38.4 µM (inactive) | 33.1 µM (inactive) | > 10 µM (inactive) | > 10 µM (inactive) | > 10 µM (inactive) | 21.7 µM (inactive) | > 10 µM (inactive) | > 100 µM (inactive) | > 10 µM (inactive) | 36 µM (inactive) | 71.8 µM (inactive) |  | > 10 µM (inactive) | 68.7 | 25.4 µM (inactive) | > 10 µM (inactive) | > 10 µM (inactive) | 41.8 µM (inactive)
13 | CCCCCCC(=O)O[C@H]1CC[C@H]2[C@@H]3CCC4C/C(=N/NC(=O)c5cccc6c(=O)c7ccccc7[nH]c56)C=C(C)[C@]4(C)[C@H]3CC[C@]12C (some centres undefined) | > 25 µM (inactive) | > 25 µM (inactive) | > 25 µM (inactive) | > 25 µM (inactive) | > 25 µM (inactive) | > 25 µM (inactive) | > 25 µM (inactive) | 19.6 µM (inactive) | > 25 µM (inactive) |  | > 25 µM (inactive) |  | > 25 µM (inactive) | > 25 µM (inactive) | > 25 | > 25 µM (inactive) | > 25 µM (inactive) | > 25 µM (inactive) | > 25 µM (inactive)
14 | CC(=O)Nc1ccc(NS(=O)(=O)c2ccc3nc(C)n(NS(=O)(=O)c4ccc(NC(C)=O)cc4)c(=O)c3c2)cc1 |  | > 100 µM (inactive) | > 100 µM (inactive) | > 100 µM (inactive) | > 100 µM (inactive) | > 100 µM (inactive) | > 100 µM (inactive) | > 100 µM (inactive) | > 100 µM (inactive) | > 100 µM (inactive) | > 100 µM (inactive) | > 100 µM (inactive) | > 100 µM (inactive) | > 100 µM (inactive) | > 100 | > 100 µM (inactive) | > 100 µM (inactive) | > 100 µM (inactive) | > 100 µM (inactive)
15 | COc1ccc2oc(=N)c(C(=O)Nc3ccccn3)cc2c1 | 61.2 µM (inactive) | > 100 µM (inactive) | > 100 µM (inactive) | > 100 µM (inactive) |  | 76 µM (inactive) | > 100 µM (inactive) |  | 62.4 µM (inactive) | > 100 µM (inactive) |  | > 100 µM (inactive) | > 100 µM (inactive) | 53.6 µM (inactive) | > 100 | > 100 µM (inactive) | > 100 µM (inactive) | > 100 µM (inactive) | > 100 µM (inactive)
16 | O=S(=O)(O)c1cc(O)c(/N=N/c2ccc3ccccc3c2O)c2ccccc12 [ERIOCHROME BLUE BLACK B] | 0.0753 µM (active) | 7.41 µM (inactive) | 6.17 µM (inactive) | 31.4 µM (inactive) | 27.4 µM (inactive) | 24.6 µM (inactive) | 28.7 µM (inactive) | 17.1 µM (inactive) | 12.9 µM (inactive) | 45.6 µM (inactive) | 66.2 µM (inactive) |  | 27 µM (inactive) | 3.59 µM (inactive) | 23.9 | 21.1 µM (inactive) | 24.7 µM (inactive) | 14.3 µM (inactive) | 11.9 µM (inactive)
